Here are results for seven compounds from ChEMBL document CHEMBL1125950, “Synthesis, siderophore, and antimicrobial evaluation of a spermidine-based tricatecholate siderophore and carbacephalosporin conjugate” (1991).

Holding throughout (assay type): functional
Assay [1] has as its system Escherichia coli. In words: Compound was evaluated for zone of stimulation of growth in Escherichia coli RWB18 at a concentration of 25 nM.
Assay [2] has as its system Escherichia coli. In words: Compound was evaluated for zone of stimulation of growth in Escherichia coli RW193 at concentration of 5 nM.
Assay [3] deals with Escherichia coli. As to the kind of experiment: Compound was evaluated for zone of stimulation of growth in Escherichia coli RW193 at concentration of 25 nM.
Assay [4] deals with Escherichia coli. In words: Compound was evaluated for zone of stimulation of growth in Escherichia coli X580 at concentration of 25 nM.
In assay [5] the test system is Escherichia coli. As to the kind of experiment: Compound was evaluated for zone of stimulation of growth in Escherichia coli RWB18 at a concentration of 5 nM.
The subject of assay [6] is Escherichia coli. As to the kind of experiment: Compound was evaluated for zone of stimulation of growth in Escherichia coli X580 at concentration of 5 nM.

In the case of `O=C(O)CCC(=O)N(CCCCNC(=O)c1cccc(O)c1O)CCCNC(=O)c1cccc(O)c1O`, the Zone of stimulation in assay [1] was 24 mm.

For `O=C(CCC(=O)N(CCCCNC(=O)c1cccc(O)c1O)CCCNC(=O)c1cccc(O)c1O)NCCCC[C@H](NC(=O)c1cccc(O)c1O)C(=O)O` (stereo in doubt), the Zone of stimulation in assay [1] was 24 mm; in assay [2] it was 22 mm; in assay [3] it was 28 mm; in assay [4], 22 mm; in assay [5], 16 mm.

`O=C(CCC(=O)N(CCCCNC(=O)c1cccc(O)c1O)CCCNC(=O)c1cccc(O)c1O)NCCCC[C@H](NC(=O)c1cccc(O)c1O)C(=O)N[C@@H]1C(=O)N2C(C(=O)O)=C(Cl)CC[C@H]12` (stereo in doubt): the Zone of stimulation in assay [1] was 20 mm; in assay [2], 12 mm; in assay [4] it was 12 mm; in assay [5], 12 mm.

Take `O=C(CCC(=O)N(CCCCNC(=O)c1cccc(O)c1O)CCCNC(=O)c1cccc(O)c1O)NCCCC[C@H](NC(=O)c1cccc(O)c1O)C(=O)O` (stereo in doubt; 7): the results for the Zone of stimulation in assay [3], in assay [4] and in assay [5] were 24 mm, 20 mm and 24 mm, respectively.

Regarding `O=C(CCC(=O)N(CCCCNC(=O)c1cccc(O)c1O)CCCNC(=O)c1cccc(O)c1O)NCCCC[C@H](NC(=O)c1cccc(O)c1O)C(=O)N[C@@H]1C(=O)N2C(C(=O)O)=C(Cl)CC[C@H]12` (stereo in doubt; 8), the Zone of stimulation in assay [1] is 16 mm; in assay [3] it was 18 mm; in assay [4], 0 mm; in assay [5], 10 mm.

In the case of `O=C(N[C@H]1COC(=O)[C@@H](NC(=O)c2cccc(O)c2O)COC(=O)[C@@H](NC(=O)c2cccc(O)c2O)COC1=O)c1cccc(O)c1O` (stereo in doubt; form 1) [ENTEROBACTIN], the results for the Zone of stimulation in assay [6] and in assay [4] were 24 mm and 38 mm, respectively.

For the compound `O=C(N[C@H]1COC(=O)[C@@H](NC(=O)c2cccc(O)c2O)COC(=O)[C@@H](NC(=O)c2cccc(O)c2O)COC1=O)c1cccc(O)c1O` (stereo in doubt; form 2) [ENTEROBACTIN], the Zone of stimulation is 30 mm in assay [6] and 40 mm in assay [4].
